What was measured:
[1] = molecular target: T1, CDK4 protein kinase (GST-CDK4(1-303 end)) (Homo sapiens, UniProt P11802); assay: CDK4 protein kinase activity, Caliper mobility shift assay; format: biochemical; settings: substrate Peptide FAM-P8, 28° C. for 3 h
T1 construct: GST-CDK4(1-303 end); GST (N)
Protocol: (§1) Activity Assay: The CDK4 protein kinase activity was measured using the Caliper mobility shift assay (see J. Biomol. Screen, 2009, PP31). The test compound was dissolved in DMSO and diluted with a kinase buffer solution (20 mM HEPES-pH 7.5, 0.01% Triton X-100, 10 mM MgCl2, 2 mM DTT) and 5 μL of the compound at 5-fold final concentration of reaction dissolved in 10% DMSO was added in a 384-well plate. The compound-free control well was 5 μL of 10% DMSO, and the no-activity control well was 5 μL of kinase buffer. 10 μL of a 2.5-fold diluted CDK4 enzyme solution (GST-CDK4(1-303 end)) was added and incubated at room temperature for 10 min, and then 10 μL of the 2.5-fold diluted substrate solution Peptide FAM-P8 was added. The reaction was stopped by adding 25 μL of stop solution after incubation at 28° C. for 3 h, and the conversion rate data was read on a Caliper EZ Reader II (Caliper Life Sciences) and the conversion rate was converted to inhibition rate data according to above method. Among them, the inhibition rate %=(max−conversion)/(max−min)×100%.

[2] = molecular target: T2, CDK6 protein kinase (GST-CDK6(1-326 end)) (Homo sapiens, UniProt Q00534); assay: CDK6 protein kinase activity, Caliper mobility shift assay; format: biochemical; settings: substrate Peptide FAM-P8, 28° C. for 3 h
T2 construct: GST-CDK6(1-326 end); GST (N)
T2 sequence (Q00534 whole entry): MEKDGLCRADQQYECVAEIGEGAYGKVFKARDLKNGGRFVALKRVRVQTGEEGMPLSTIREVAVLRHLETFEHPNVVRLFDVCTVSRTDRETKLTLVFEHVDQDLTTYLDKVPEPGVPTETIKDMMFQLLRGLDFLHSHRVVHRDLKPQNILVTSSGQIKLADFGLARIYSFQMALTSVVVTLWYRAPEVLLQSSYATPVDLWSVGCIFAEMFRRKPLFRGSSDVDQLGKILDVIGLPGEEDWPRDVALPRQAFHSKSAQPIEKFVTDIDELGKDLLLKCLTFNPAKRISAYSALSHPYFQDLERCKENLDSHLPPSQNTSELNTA
T2 sequence (P30281 whole entry partner): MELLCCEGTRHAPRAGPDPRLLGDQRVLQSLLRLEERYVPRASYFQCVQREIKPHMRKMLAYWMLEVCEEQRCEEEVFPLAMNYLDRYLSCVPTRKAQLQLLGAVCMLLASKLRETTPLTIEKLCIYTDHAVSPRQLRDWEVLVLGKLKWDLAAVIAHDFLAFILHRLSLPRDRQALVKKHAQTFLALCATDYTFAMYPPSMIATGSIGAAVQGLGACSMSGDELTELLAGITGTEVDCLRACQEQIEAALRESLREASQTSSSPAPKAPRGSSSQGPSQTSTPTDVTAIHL
Protocol: as §1, with “CDK6” for “CDK4”, “(GST-CDK6(1-326” for “(GST-CDK4(1-303”

T1 sequence (P11802 whole entry): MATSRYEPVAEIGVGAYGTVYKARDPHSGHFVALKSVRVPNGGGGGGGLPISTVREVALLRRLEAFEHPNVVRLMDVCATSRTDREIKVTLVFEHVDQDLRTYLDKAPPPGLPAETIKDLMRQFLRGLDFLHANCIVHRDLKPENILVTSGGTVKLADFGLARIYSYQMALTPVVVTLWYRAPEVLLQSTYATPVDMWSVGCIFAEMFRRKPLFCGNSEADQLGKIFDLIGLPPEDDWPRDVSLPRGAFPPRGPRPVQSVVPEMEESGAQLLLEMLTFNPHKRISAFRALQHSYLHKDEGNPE
T1 sequence (P30281 whole entry partner): as the sequence (P30281 whole entry partner) above

| Molecule | IC50 [1] | IC50 [2] |
| --- | --- | --- |
| O=C1N(C2CCCC2)c2nc(Nc3ccc(N4CCNCC4)cn3)ncc2OC12CC2 [Compound I-4, 8′-cyclopentyl-2′-(5-(1-piperazinyl)-pyridin-2-amino)spiro[cycloprop-1,6′-pyrimido[5,4-b][1,4]oxazin]-7′(8′H)-one] | ≤ 20 nM | 20 to 100 nM |
| CC1(C)Sc2cnc(Nc3ccc(N4CCN(C5CCCCCC5)CC4)cn3)nc2N(C2CCCC2)C1=O [Compound I-23, 6,6-dimethyl-8-cyclopentyl-2-(5-(4-cycloheptyl-1-piperazinyl)-pyridin-2-amino)-6H-pyrimido[5,4-b][1,4]thiazin-7(8H)-one] | ≤ 20 nM | ≤ 20 nM |
| CC1(C)Oc2cnc(Nc3ccc(N4CCNCC4)cn3)nc2N(C2CCCC2)C1=O [Compound I-2, 6,6-Dimethyl-8-cyclopentyl-2-(5-(1-piperazinyl)-pyridin-2-amino)-6H-pyrimido[5,4-b][1,4]oxazin-7(8H)-one] | ≤ 20 nM | ≤ 20 nM |
| CCC(C)(C)N1C(=O)C(C2CCCCC2)Oc2cnc(Nc3ccc(CN4CCN(C5CC5)CC4)cn3)nc21 (stereo not drawn) [Compound I-18, 6-cyclohexyl-8-tert-amyl-2-(5-(4-cyclopropyl-1-piperazinyl)methyl-pyridin-2-amino)-6H-pyrimido[5,4-b][1,4]oxazin-7(8H)-one] | ≤ 20 nM | ≤ 20 nM |
| CC1(C)Oc2cnc(Nc3ccc(N4CCN(C5CCCCC5)CC4)cn3)nc2N(C2CCCC2)C1=O [Compound I-22, 6,6-dimethyl-8-cyclopentyl-2-(5-(4-cyclohexyl-1-piperazinyl)-pyridin-2-amino)-6H-pyrimido[5,4-b][1,4]oxazin-7(8H)-one] | ≤ 20 nM | ≤ 20 nM |
| CCCN1CCN(Cc2ccc(Nc3ncc4c(n3)N(C(C)C(C)C)C(=O)C(C3CCCCCC3)S4)nc2)CC1 (stereo not drawn) [Compound I-19, 6-cycloheptyl-8-(3-methyl-2-butyl)-2-(5-(4-n-propyl-1-piperazinyl)methyl-pyridine-2-amino)-6H-pyrimido[5,4-b][1,4]thiazin-7(8H)-one] | ≤ 20 nM | 20 to 100 nM |
| O=C1C(C(F)(F)F)Oc2cnc(Nc3ccc(N4CCNCC4)cn3)nc2N1C1CCCC1 (stereo not drawn) [Compound I-11, 6-trifluoromethyl-8-cyclopentyl-2-(5-(1-piperazinyl)-pyridin-2-amino)-6H-pyrimido[5,4-b][1,4]oxazin-7(8H)-one] | ≤ 20 nM | 20 to 100 nM |
| CCN1C(=O)C(C)(CC)Oc2cnc(Nc3ccc(CN4CCN(C)CC4)cn3)nc21 (stereo not drawn) [Compound I-16, 6-methyl-6,8-diethyl-2-(5-(4-methyl-1-piperazinyl)methyl-pyridin-2-amino)-6H-pyrimido[5,4-b][1,4]oxazin-7(8H)-one] | ≤ 20 nM | ≤ 20 nM |
| CC(=O)C1Oc2cnc(Nc3ccc(N4CCNCC4)cn3)nc2N(C2CCCC2)C1=O (stereo not drawn) [Compound I-9, 6-acetyl-8-cyclopentyl-2-(5-(1-piperazinyl)-pyridin-2-amino)-6H-pyrimido[5,4-b][1,4]oxazin-7(8H)-one] | ≤ 20 nM | 20 to 100 nM |
| CC(C)N1C(=O)C(C)(C)Oc2cnc(Nc3ccc(N4CCNCC4)cn3)nc21 [Compound I-1, 6,6-Dimethyl-8-isopropyl-2-(5-(1-piperazinyl)-pyridin-2-amino)-6H-pyrimido[5,4-b][1,4]oxazin-7(8H)-one] | ≤ 20 nM | ≤ 20 nM |
| O=C1N(C2CCCC2)c2nc(Nc3ccc(N4CCNCC4)cn3)ncc2OC12CCCCC2 [Compound I-7, 8′-cyclopentyl-2′-(5-(1-piperazinyl)-pyridin-2-amino)spiro[cyclohex-1,6′-pyrimido[5,4-b][1,4]oxazin]-7′(8′H)-one] | ≤ 20 nM | ≤ 20 nM |
| CC1(C)Oc2cnc(Nc3ccc(N4CCN(C5CCCC5)CC4)cn3)nc2N(C2CCCC2)C1=O [Compound I-21, 6,6-dimethyl-8-cyclopentyl-2-(5-(4-cyclopentyl-1-piperazinyl)-pyridin-2-amino)-6H-pyrimido[5,4-b][1,4]oxazin-7(8H)-one] | ≤ 20 nM | 20 to 100 nM |
| CCN1CCN(Cc2ccc(Nc3ncc4c(n3)N(C3CCCC3)C(=O)C(C)(C)O4)nc2)CC1 [Compound I-3, 6,6-Dimethyl-8-cyclopentyl-2-(5-(4-ethyl-1-piperazinyl)methyl-pyridin-2-amino)-6H-pyrimido[5,4-b][1,4]oxazin-7(8H)-one] | ≤ 20 nM | ≤ 20 nM |
| O=C1N(C2CCCC2)c2nc(Nc3ccc(N4CCNCC4)cn3)ncc2OC12CCC2 [Compound I-5, 8′-cyclopentyl-2′-(5-(1-piperazinyl)-pyridin-2-amino)spiro[cyclobut-1,6′-pyrimido[5,4-b][1,4]oxazin]-7′(8′H)-one] | ≤ 20 nM | 20 to 100 nM |
| CCN1CCN(Cc2ccc(Nc3ncc4c(n3)N(C)C(=O)C(C(C)C)O4)nc2)CC1 (stereo not drawn) [Compound I-15, 6-isopropyl-8-methyl-2-(5-(4-ethyl-1-piperazinyl)methyl-pyridin-2-amino)-6H-pyrimido[5,4-b][1,4]oxazin-7(8H)-one] | ≤ 20 nM | 20 to 100 nM |

Continued, values first:

| IC50 [1] | IC50 [2] | Molecule |
| --- | --- | --- |
| ≤ 20 nM | ≤ 20 nM | CC1(C)Oc2cnc(Nc3ccc(N4CCNCC4)cn3)nc2N(c2ccc(Cl)cc2)C1=O [Compound I-36, 6,6-dimethyl-8-(4-chlorophenyl)-2-(5-(1-piperazinyl)-pyridin-2-amino)-6H-pyrimido[5,4-b][1,4]oxazin-7(8H)-one] |
| ≤ 20 nM | 20 to 100 nM | CCC(CC)N1C(=O)C(C)(C)Oc2cnc(Nc3ccc(CN4CCN(CC)CC4)cn3)nc21 [Compound I-38, 6,6-dimethyl-8-(3-pentyl)-2-(5-(4-ethyl-1-piperazinyl)methyl-pyridine-2-amino)-6H-pyrimido[5,4-b][1,4]oxazin-7(8H)-one] |
| ≤ 20 nM | ≤ 20 nM | CN(C)C(=O)C1Oc2cnc(Nc3ccc(N4CCNCC4)cn3)nc2N(C2CCCC2)C1=O (stereo not drawn) [Compound I-33, N,N-dimethyl-6-carboxamide-8-cyclopentyl-2-(5-(1-piperazinyl)-pyridin-2-amino)-6H-pyrimido[5,4-b][1,4]oxazin-7(8H)-one] |
| ≤ 20 nM | 100 to 500 nM | CCN1CCN(Cc2ccc(Nc3ncc4c(n3)N(C3CCCC3)C(=O)C(C(C)=O)O4)nc2)CC1 (stereo not drawn) [Compound I-26, 6-acetyl-8-cyclopentyl-2-(5-(4-ethyl-1-piperazinyl)methyl-pyridin-2-amino)-6H-pyrimido[5,4-b][1,4]oxazin-7(8H)-one] |
| ≤ 20 nM | 20 to 100 nM | CCN1CCN(Cc2ccc(Nc3ncc4c(n3)N(c3ccccn3)C(=O)C(C)(C)O4)nc2)CC1 [Compound I-30, 6,6-dimethyl-8-(2-pyridyl)-2-(5-(4-ethyl-1-piperazinyl)methyl-pyridine-2-amino)-6H-pyrimido[5,4-b][1,4]oxazin-7(8H)-one] |
| ≤ 20 nM | > 500 nM | CC1(C)Oc2cnc(Nc3ccc(N4CCNCC4)cn3)nc2N(c2ccco2)C1=O [Compound I-32] |
| ≤ 20 nM | ≤ 20 nM | CCN1CCN(Cc2ccc(Nc3ncc4c(n3)N(C3CCCC3)C(=O)C(C#N)O4)nc2)CC1 (stereo not drawn) [Compound I-27, 6-cyano-8-cyclopentyl-2-(5-(4-ethyl-1-piperazinyl)methyl-pyridin-2-amino)-6H-pyrimido[5,4-b][1,4]oxazin-7(8H)-one] |
| ≤ 20 nM | ≤ 20 nM | CC1(C)Oc2cnc(Nc3ccc(N4CCNCC4)cn3)nc2N(c2cccs2)C1=O [Compound I-29, 6,6-dimethyl-8-(2-thienyl)-2-(5-(1-piperazinyl)-pyridin-2-amino)-6H-pyrimido[5,4-b][1,4]oxazin-7(8H)-one] |
| ≤ 20 nM | 20 to 100 nM | CCN1CCN(Cc2ccc(Nc3ncc4c(n3)N(C3CCCC3)C(=O)C3(CCC3)O4)nc2)CC1 [Compound I-28] |
| ≤ 20 nM | ≤ 20 nM | NC(=O)C1Oc2cnc(Nc3ccc(N4CCNCC4)cn3)nc2N(C2CCCC2)C1=O (stereo not drawn) [Compound I-34, 6-carboxamide-8-cyclopentyl-2-(5-(1-piperazinyl)-pyridin-2-amino)-6H-pyrimido[5,4-b][1,4]oxazin-7(8H)-one] |
| ≤ 20 nM | ≤ 20 nM | 8′-cyclopentyl-2′-(5-(4-ethyl-1-piperazinyl)-pyridin-2-amino)spiro[cycloprop-1,6′-pyrimido[5,4-b][1,4]oxazin]-7′(8′H)-one [Compound I-25] |
| ≤ 20 nM | ≤ 20 nM | CC(C)N1CCN(c2ccc(Nc3ncc4c(n3)N(C3CCCC3)C(=O)C(C)(C)S4)nc2)CC1 [Compound I-24, 6,6-dimethyl-8-cyclopentyl-2-(5-(4-isopropyl-1-piperazinyl)-pyridin-2-amino)-6H-pyrimido[5,4-b][1,4]thiazin-7(8H)-one] |

From patent US10351578B2, “Heterocyclic-substituted pyridinopyrimidinone derivative as CDK inhibitor and use thereof” (Shanghai Xunhe Pharmaceutical Technology Co. Ltd., priority 2016, dated 2019)
